Results reported in paper PMC7551591, “The Effect of Resveratrol or Curcumin on Head and Neck Cancer Cells Sensitivity to the Cytotoxic Effects of Cisplatin” (Nutrients, 2020).
Values belong to the compound of their own block, whether it stands above or below them.

Assays:
Assay type in all cases: cell-based, human
[1] = test system: p21 protein (CIP1/CDKN1A) expression in HUVEC; assay: Total p21 protein ELISA in cell lysates, normal cells; conditions: 24 h; for n-fold p21 Protein Expression HUVEC: vs control
Protocol: After incubation, cells were washed twice with ice-cold PBS, scraped, pelleted and lysed in RIPA buffer (Pierce) supplemented with protease inhibitor cocktail (Roche) and phosphatase inhibitor (Roche) for 30 min on ice. The lysates were transfered into microcentrifuge tubes and centrifuged at 14,000× g for 5 min at 4 °C followed by sonication (10–15 s × 3). The supernatants were collected into clean microcentrifuge tubes and stored at −80 °C. Lysates protein concentration were quantified by BCA protein assay kit (Thermo Scientific) and aliquots of 50 μg of total cell lysate were used for ELISA assay.
DuoSetR IC ELISA-Human Total p21/CIP1/CDKN1A(: DYC1047-2) was purchased from R&D Systems Inc. and contains the basic components required for the development of sandwich ELISAs to measure human p21 protein also known as CIP1 and CDKN1A in cell lysates. An immobilized capture antibody specifically binds human p21. After washing away unbound material, a biotinylated detection antibody specific for human p21 is used to detect the captured protein, utilizing a standard Streptavidin-HRP format. All experiments were performed in triplicates and absorbance was measured at λ = 450 nm using a Dynex plate reader.
In cancer development and evolution p21 protein might acts as an oncogene or tumor suppressor and for this reason it could be an important player in processes such as the cancer aggressiveness or the response to chemotherapy. In this study, using ELISA assay we analyzed the expression level of p21 in the tumor cells (PE-CA/PJ49) compared to a normal cells (HUVEC).

PE/CA-PJ49 tumor cells [2] = assay: MTT drug sensitivity (viability) assay, tumor cells; conditions: 24 h; for IC50: Homo sapiens; for IC50 / IC 25: MTT; for Selectivity Index (SI): IC50 in HUVEC / IC50 in PE/CA-PJ49
Protocol: The MTT assay is based on the ability of viable cells to reduce the reagent 3-(4,5-dimethylthiazol-2-yl)-2,5-diphenyltetrazolium bromide to colored formazan compounds [48]. Because the transformation is only possible in viable cells, the amount of blue formazan is proportional to the number of viable cells and thus, a linear dependence exists between cell activity and absorbance. Cells were seeded in triplicate in 96-well plates at a density of 5000 cells/well, incubated at 37 °C for 24 h. […] After the incubation period, 20 μL MTT (5 mg/mL in PBS) was added and further incubated for 4 h. The supernatant was removed, and the formazan product was analyzed spectrophotometrically (570 nm) after dissolution in DMSO. Wells without cells serve as a blank, and their absorbance was subtracted from the other results. Untreated cells were used as control and their viability was assumed as 100%. Results were expressed as mean values of three determinations ± standard deviation (SD). Data are presented as percent of cell viability and compared to untreated [Viability% = (T − B)/(U − B) × 100, {where T = absorbance of treated cells; U = absorbance of untreated cells, B = absorbance of blank}]. Once percent viability was obtained, the drug response curve was generated, and inhibitory concentration (IC50 and IC25) was calculated using GraphPad Prism version 5.01 [49].
SI values of more than 2 were considered as indicative of high selectivity.
The anticancer cytotoxic activity in vitro was evaluated by the MTT assay. […] The most widely used and informative measure of a drug’s efficacy is IC50-the half-maximal inhibitory concentration. IC50 was determined at half of the difference between the maximum (plateau) and minimum absorbance values, by plotting the absorbance value at 570 nm (Y axis) versus the concentration of the compound analysed (X axis). The IC50 values were reported as a mean of three independent experiments ± standard deviation (S.D.).

[3] = Annexin V-FITC/PI apoptosis flow cytometry, normal cells; conditions: human, HUVEC normal cells, read-out: Q3 (viable cells, FITC−PI−)
Protocol: (§1) The apoptosis assay was carried out with the Annexin V-FITC kit using the manufacturer’s (BD Pharmingen) protocol. Treated and untreated 1 × 10^6 cells/mL were resuspended in cold binding buffer and staining simultaneously with 5 μL FITC-Annexin V (green fluorescence) and 5 μL propidium iodide (PI) in the dark, at room temperature for 15 min. Then, 400μL of Annexin V binding buffer was added and 10,000 cells/sample were acquired using a BD Canto II flow cytometer. The analysis was performed using DIVA 6.2 software in order to discriminate viable cells (FITC^−PI^−) from necrotic cells […] and early apoptosis (FITC^+PI^−) from late apoptosis.
(§2) Apoptosis can be seen as an efficient method of preventing malignant transformation, as it ensures the removal of cells which present with genetic alterations. Deficient apoptosis can promote the development of cancer, both through the accumulation of cells found during division and the blocking of the removal of cells with high malignant potential genetic variations. The factors which determine the cells to follow one of three possible pathways are not yet known – the start of apoptosis after cellular injury, the repair of the lesion or the continuation of the cellular cycle. Many therapeutical agents have anti-tumoral effects generated by their capacity to activate the apoptotic process. […] The flow cytometric analysis was performed using DIVA 6.2 software and allowed to discriminate viable cells (FITC^−PI^− = Q3) from necrotic cells (FITC^−PI^+ = Q1) and early apoptosis (FITC^+PI^− = Q4) from late apoptosis (FITC^+PI^+ = Q2).

HUVEC normal cells = assay: as above; conditions: 24 h; for Apoptoza Tarzie = Q2 (%): late apoptosis; for Apoptoza Totală = Q2+Q4 (%): total apoptosis
Protocol: as §1, §2

PE/CA-PJ49 tumor cells [4] = assay: Annexin V-FITC/PI apoptosis flow cytometry, tumor cells; conditions: 24 h
Protocol: as §1, §2

PE/CA-PJ49 tumor cells [5] = assay: MTS cell proliferation assay (CellTiter 96), tumor cells; conditions: 24 h, PE/CA-PJ49 vs HUVEC
Text: In order to determine the effect of CRM or RSV on proliferative activity of cisplatin treated cells was used the Promega CellTiter 96® AQueous One Solution Cell Proliferation Assay, a test that is based on the reduction of yellow MTS tetrazolium salt by the viable cells and generation of colored formazan soluble in the culture medium. The product was spectrophotometrically quantified by measuring the absorbance at λ = 490 nm using a Dynex plate reader (DYNEX Technologies-MRS, Chantilly, VA, USA). Results were expressed as mean values of three determinations ± standard deviation (SD). Untreated cells served as control and considered to have a proliferation index (PI = absorbance of treated cells/absorbance of untreated cells) equal to 1.

IC50 (PE/CA-PJ49 tumor cells [2]; PE/CA-PJ49): 16.3 ± 3.4 µM
Compound: COc1cc(/C=C/C(=O)CC(=O)/C=C/c2ccc(O)c(OC)c2)ccc1O [CRM, Curcumin]
p21 pg/mL HUVEC ([1]; 15 μM CRM): 221 pg/mL
n-fold p21 Protein Expression HUVEC ([1]; 15 μM CRM): 1.21
cell viability (MTT) (PE/CA-PJ49 tumor cells [2]; 15 μM CRM, PE/CA-PJ49 vs HUVEC): reduced tumor cell viability compared to normal cells HUVEC
Selectivity Index (SI) (PE/CA-PJ49 tumor cells [2]): 3.66
IC 25 (PE/CA-PJ49 tumor cells [2]; PE/CA-PJ49): 7.9 ± 1.8 µM
viability at 24 h, 15 μM ([3]; 15 μM CRM): 90.2%
Early Apoptosis = Q4 (%) (HUVEC normal cells; 15 μM CRM): 6.7%
Necrosis = Q1 (%) (HUVEC normal cells; 15 μM CRM): 2.6%
Apoptoza Tarzie = Q2 (%) (HUVEC normal cells; 15 μM CRM): 0.5%
Apoptoza Totală = Q2+Q4 (%) (HUVEC normal cells; 15 μM CRM): 7.2%
Early Apoptosis = Q4 (%) (PE/CA-PJ49 tumor cells [4]; 15 μM CRM): 19.1%
Late Apoptosis = Q2 (%) (PE/CA-PJ49 tumor cells [4]; 15 μM CRM): 9.1%
Necrosis = Q1 (%) (PE/CA-PJ49 tumor cells [4]; 15 μM CRM): 6.7%
Total Apoptosis = Q2 + Q4 (%) (PE/CA-PJ49 tumor cells [4]; 15 μM CRM): 28.2%
viability at 15 µM (PE/CA-PJ49 tumor cells [4]; Homo sapiens, 15 μM CRM, read-out: Q3 (viable cells, FITC−PI−)): 65.1%
proliferative process (IP) (PE/CA-PJ49 tumor cells [5]; 15 μM CRM): much more intense decrease of the proliferative process

IC50 (PE/CA-PJ49 tumor cells [2]; PE/CA-PJ49): 46.8 ± 2.6 µM
Compound: Oc1ccc(C=Cc2cc(O)cc(O)c2)cc1 [RSV, 3,5,4′-trihydroxystilbene]
p21 pg/mL HUVEC ([1]; 40 μM RSV): 148 pg/mL
n-fold p21 Protein Expression HUVEC ([1]; 40 μM RSV): 0.81
Selectivity Index (SI) (PE/CA-PJ49 tumor cells [2]): 2.36
IC 25 (PE/CA-PJ49 tumor cells [2]; PE/CA-PJ49): 17.6 ± 1.5 µM
cell viability (MTT) (PE/CA-PJ49 tumor cells [2]; PE/CA-PJ49, RSV 40 μM vs untreated cells): significantly affected
viability at 24 h, 40 μM ([3]; 40 μM RSV): 93.7%
Early Apoptosis = Q4 (%) (HUVEC normal cells; 40 μM RSV): 4.8%
Necrosis = Q1 (%) (HUVEC normal cells; 40 μM RSV): 1.2%
Apoptoza Tarzie = Q2 (%) (HUVEC normal cells; 40 μM RSV): 0.3%
Apoptoza Totală = Q2+Q4 (%) (HUVEC normal cells; 40 μM RSV): 5.1%
Early Apoptosis = Q4 (%) (PE/CA-PJ49 tumor cells [4]; 40 μM RSV): 17.7%
Late Apoptosis = Q2 (%) (PE/CA-PJ49 tumor cells [4]; 40 μM RSV): 9.5%
Necrosis = Q1 (%) (PE/CA-PJ49 tumor cells [4]; 40 μM RSV): 5.4%
Total Apoptosis = Q2 + Q4 (%) (PE/CA-PJ49 tumor cells [4]; 40 μM RSV): 27.2%
viability at 40 µM (PE/CA-PJ49 tumor cells [4]; Homo sapiens, 40 μM RSV, read-out: Q3 (viable cells, FITC−PI−)): 67.4%
proliferation (index proliferation, IP) (PE/CA-PJ49 tumor cells [5]; 40 μM RSV): affected the proliferation of tumor cells PE/CA-PJ49 much more than the one of normal cells HUVEC
